Test results as given in patent US10975029B2, “Crystalline eravacycline bis-hydrochloride” (Sandoz AG, priority 2016, dated 2021).
Structures can show the parent of a compound that is named as a salt.

Columns and labels:
Format in all cases: physicochemical
[1] = Comparative Example 2: chemical stability under accelerated stress conditions, HPLC at 254 nm; conditions: dihydrochloride; for Area % (HPLC, 254 nm) after 40° C./75% RH for 19 days / Area % (HPLC, 254 nm) after 40° C./75% RH for 42 days: open stored in glass vials; for Area % (HPLC, 254 nm), initial sample: before stress
From the text: [formula] mT=initial mass of eravacycline bis-hydrochloride tested in mg VT=consumption of volumetric solution for titration of eravacycline bis-hydrochloride in mL F=factor of the volumetric solution 36.46=molecular mass of hydrochloride in g/mol 0.1=molarity of the volumetric solution 100=conversion to % High Performance Liquid Chromatography Instrument: Agilent HP 1100 with Chemstation Column: YMC-Pack Pro C18 RS; 150*4.6 mm; 3 microm Solvent: A: 40 mmol amidosulfonic acid in water • B: 40 mmol amidosulfonic acid in water with 75% acetonitrile Gradient: […]
Injection volume: 5 microL Flow: 0.8 mL/min Oven temperature: 40° C. Wavelength: 254 nm
Crystalline eravacycline bis-hydrochloride of the present invention and amorphous eravacycline bis-hydrochloride were subjected to accelerated stress conditions of 40° C. and 75% relative humidity. The samples were open stored in glass vials and analyzed by high performance liquid chromatography at 254 nm using the method as described in the experimental section above.

[2] = Comparative Example 1: gravimetric moisture sorption/desorption experiment, 0 to 80% RH; conditions: 25° C.; for hysteresis between the sorption and the desorption curve: 0 to 80% RH; for hysteresis between the sorption and the desorption curve / mass increase during the sorption cycle from 0 to 80% RH: dihydrochloride; for mass increase during the sorption cycle from 0 to 80% RH: sorption cycle 0 to 80% RH, reference weight at 0% RH
From the text: Crystalline eravacycline bis-hydrochloride of the present invention and amorphous eravacycline bis-hydrochloride were both subjected to a gravimetric moisture sorption/desorption experiment using an SPSx-1μ moisture sorption analyzer (ProUmid, Ulm). The measurement cycles were started at ambient relative humidity (RH) of 20% and the RH was first decreased in 5% steps to 5% RH, in one step to 3% RH in a further step to 0% RH. Then RH was increased from 0% to 80% and decreased from 80 to 0% RH in 5% steps. Finally, the relative humidity was increased to ambient relative humidity of 20% in 3 steps of approximately 7% steps. The time per step was set to a minimum of 2 hours and a maximum of 6 hours. If an equilibrium condition with a constant mass of 0.01% within 1 hour was reached before the maximum time for all examined samples the sequential humidity step was applied before the maximum time of 6 hours. If no equilibrium was achieved the consecutive humidity step was applied after the maximum time of 6 hours. The temperature was (25±0.1)° C.

[3] = Gravimetric moisture sorption isotherm, 0% to 95% RH, with pictures to detect visual changes (deliquescence); conditions: for relative humidity at which the solid liquefies (deliquescence): measured at 25.0±0.1° C., dihydrochloride
Method: Moisture sorption isotherms were recorded with an SPSx-1μ moisture sorption analyzer (proUmid, Ulm). The measurement cycle was started at ambient relative humidity (RH) of 25% and first decreased in 5% steps to 5% RH, in one step to 3% RH in a further step to 0% RH. Then RH was increased from 0% to 95% in 5% steps. The time per step was set to a minimum of 2 hours and a maximum of 6 hours. If an equilibrium condition with a constant mass of +0.01% within 1 hour was reached before the maximum time for all examined samples, the sequential humidity step was applied before the maximum time of 6 hours. If no equilibrium was achieved, the consecutive humidity step was applied after the maximum time of 6 hours. The temperature was 25±0.1° C. At the beginning of the GMS experiment, as well as at the end of each RH-step a picture was taken of each sample in order to detect visual changes in the samples. Pictures were taken with a 2046×2046 pixel CMOS image sensor attached to a 35 mm/F 1.4 lens, which was directly connected to the cover plate of moisture sorption analyzer.

[4] = listed as crystalline eravacycline 2HCl
[5] = listed as amorphous eravacycline 2HCl

SMILES	Area % (HPLC, 254 nm) after 40° C./75% RH for 19 days [1, 4] [Area %]	Area % (HPLC, 254 nm) after 40° C./75% RH for 42 days [1, 4] [Area %]	Area % (HPLC, 254 nm), initial sample [1, 4] [Area %]	hysteresis between the sorption and the desorption curve [2]	water content during the sorption and the desorption cycle at 40% relative humidity ([2]; 40% RH, sorption and desorption cycle, FIG. 6)	water content at a relative humidity of 0% ([3]; 0% RH, gravimetric moisture sorption, 25° C.)	water content at a relative humidity of 90% ([3]; 90% RH, gravimetric moisture sorption, 25° C.)	relative humidity at which the solid liquefies (deliquescence) [3] [%]	behaviour when subjected to relative humidity of about 0 to 90% ([3]; relative humidity about 0 to 90% at 25.0±0.1° C.)	Area % (HPLC, 254 nm) after 40° C./75% RH for 19 days [1, 5] [Area %]	Area % (HPLC, 254 nm) after 40° C./75% RH for 42 days [1, 5] [Area %]	Area % (HPLC, 254 nm), initial sample [1, 5] [Area %]	water content in the desorption curve at 40% relative humidity ([2]; 40% RH, desorption curve, FIG. 7) [%]	water content in the sorption curve at 40% relative humidity ([2]; 40% RH, sorption curve, FIG. 7)	mass increase during the sorption cycle from 0 to 80% RH [2]	mass increase during the sorption cycle from 0 to 80% RH ([2]; listed as Amorphous eravacycline bis-hydrochloride)
CN(C)[C@@H]1C(O)=C(C(N)=O)C(=O)[C@@]2(O)C(O)=C3C(=O)c4c(O)c(NC(=O)CN5CCCC5)cc(F)c4C[C@H]3C[C@@H]12 [crystalline eravacycline bis-hydrochloride] [(4S,4aS,5aR,12aS)-4-(Dimethylamino)-7-fluoro-3,10,12,12a-tetrahydroxy-1,11-dioxo-9-[2(-pyrrolidin-1-yl)acetamido]-1,4,4a,5,5a,6,11,12a-octahydrotetracene-2-carboxamide dihydrochloride]	77.1	73.8	95.8	no significant hysteresis	about 13 weight %	about 0 weight %	about 20.1%	95	does not liquefy	–	–	–	–	–	–	–
CN(C)[C@@H]1C(O)=C(C(N)=O)C(=O)[C@@]2(O)C(O)=C3C(=O)c4c(O)c(NC(=O)CN5CCCC5)cc(F)c4C[C@H]3C[C@@H]12 [amorphous eravacycline bis-hydrochloride, (4S,4aS,5aR,12aS)-4-(Dimethylamino)-7-fluoro-3,10,12,12a-tetrahydroxy-1,11-dioxo-9-[2(-pyrrolidin-1-yl)acetamido]-1,4,4a,5,5a,6,11,12a-octahydrotetracene-2-carboxamide dihydrochloride]	–	–	–	significant hysteresis	–	–	–	85	–	31.9	30.3	97.2	14.3	about 8.9 weight %	about 26.1 weight %	about 26.1 weight %
